Measurements as given in patent publication US20260115331A1, “PET IMAGING OF BACTERIAL INFECTION WITH A PET PROBE” (Mayo Foundation for Medical Education and Research, priority 2022, published 2026).

Experiment: PET image analysis (SUV) of inflamed tibia in foreign body inflammation rat model
Assay type: in vivo, rats
Conditions: each time point up to 120 minutes (FIG. 27)
Description: The PET probe [^68Ga]Ga-H3P2O8 was evaluated in methicillin-resistant S. aureus (MRSA) foreign-body osteomyelitis in the left tibia with a stainless steel Kirschner wire (K-wire) implant in male Wister rats, following a previously established protocol [Ref. 17]. Briefly, a 1 cm incision was made on the medial tibia and the bone exposed. A 1.5 mm hole was drilled, 0.01 mL of arachidonic acid (a sclerosing agent) and 0.05 mL of a suspension containing MRSA DRL-6169 at 10^8 cfu/mL was injected into the bone. A 5 mm threaded stainless-steel K-wire was inserted. The hole was closed with dental gypsum and the site closed. After implantation, the muscle and fascia were closed with 3-0 vicryl using simple interrupted sutures. The skin was closed with sterile wound clips and VetBond. The wound was sprayed with Aluspray and Chew Guard. After 7 days of implantation of wire, the animal was put on iron-deficient diet for 7 days and on the day of imaging, the animals were fasted for 4 hours prior to the injection of the PET probe. [^68Ga]Ga-H3P2O8 (32.81±6.28 MBq, n=18) were injected into the rat model via tail vein injection. The rat model was either a normal rat model or an osteomyelitis foreign body rat model or an inflamed foreign body rat model. PET/CT images were acquired at 15 minutes, 30 minutes, 60 minutes, and 120 minutes post-injection using Siemens Inveon MicroPET/CT Scanner (see FIGS. 17, 18, and Table 2).
To assess the preferential uptake of novel [^68Ga]Ga-H3P2O8 PET probe in infection as compared to inflammation, the same surgery and imaging was performed but omitted the MRSA. […] The probe [^68Ga]Ga-H3P2O8 was also successfully used to detect thigh infection caused by E coli in a mouse model.
To further investigate the selectivity of [^68Ga]Ga-H3P2O8 for imaging infection over inflammation, this novel probe was compared to other PET imaging probes, [^68Ga]Ga-Citrate and [^18F]FDG in an inflammation model. In a side-by-side study, all three probes were used to image inflammation (i.e., an inflamed tibia) in an osteomyelitis foreign body rat model.

SMILES: OC[C@H]1OC(O)[C@H]([18F])[C@@H](O)[C@@H]1O (some centres unmarked) [[^18F]FDG, [^18F]Fluorodeoxyglucose]
- difference in mean SUV between the probes in inflamed tibia: no significant difference

SMILES: O=C([O-])CC(O)(CC(=O)[O-])C(=O)[O-].[Ga+3] [[^68Ga]Ga-Citrate]
- difference in mean SUV between the probes in inflamed tibia: no significant difference
